Patent publication US20240199604A1, “SUPRAMOLECULAR POLYMER THERAPEUTICS AND DIAGNOSTICS” (The Regents of the University of California, priority 2022, published 2024)

molecular target: T1, YFP-tagged 0N4R-Tau P301S aggregates seeded with 416-AD11A lysate (Homo sapiens, UniProt P10636, P618S); test: Tau-AD high throughput screening (counter screen) in T24 cells; format: cell-based; settings: T24 cells seeded with 416-AD11A lysate
T1 construct: C-terminally YFP-tagged full length 0N4R-Tau; expressed in transfected cells
Method: A fragment of the Middle Tempral Gyrus (MTG) from Alzheimer's Disease (AD) patient 2217 was resuspended in 9 volumes of PBS (ml/g of brain) and homogenized 3×12 seconds using a probe homogenizer (Thomas Scientific) with disposable Omni Tip plastic homogenizing probes (Thomas Scinetific Cat No 3409Y77) to generate a 10% brain homogenate (10% AD11-BH). The 10% AD11-BH was clarified of insoluble debris by centrifugation at 800×g for 5 minutes. The resulting supernatant was collected and the protein concentration of this clarified BH (AD11-CBH) was determined by bicinchoninic acid assay (BCA) (Thermo Fisher Cat No. 23227). HEK293 cells stably expressing a C-terminally Clover-tagged truncated 4R-Tau^243-382 transgene containing the P301L and V337M mutations and a C-terminally Ruby-tagged truncated 3R-Tau^243-382 transgene containing the L266V and V337M mutations (128/139 cells) were transfected with the AD11-CBH using lipofectamine 2000 (LF2K) (Thermo Fisher Cat No. 11668500). Briefly, 0.32 μl of LF2K were diluted in 5 μl Opti-MEM (Thermo Scientific Cat No 31985070) per well of a 384-well plate and incubated for 5 min at room temperature (RT). This mixture was added to 0.32 μg of AD11-CBH diluted in 5 μl of PBS per well of a 384-well plate and vortex briefly. The transfection mixture was incubated at room temperature for 90 min. The transfection complexes were subsequently added to a single well of a 384-well plate containing 3500 128/139 cells. After 3 days the cells were harvested, counted and plated at a density of 1 cell/well in a 96-well plate. A clonal cell line containing Clover and Ruby positive Tau aggregates was selected and termed 416-AD11A cells. Following the expansion of these 416-AD11A cells, a cell lysate was prepared by freeze/thaw. The cells from a confluent T175 flask were harvested in 1 ml of PBS containing 1× protease inhibitor cocktail by scraping. The cell suspension was subjected to 4 cycles of freezing in liquid nitrogen for 5 minutes followed by thawing at 37° C. for 5 minutes. The resulting cell lysate was centrifuged at 2000 RPM for 10 minutes to remove the cell debris and the protein concentration of the resulting 416-AD11A lysate was determined by BCA assay and aliquots frozen for future use.
HEK293 cells stably expressing C-terminally YFP-tagged full length 0N4R-Tau carrying a P301S mutation (T24 cells) are plated at a density of 4000 cells per well of a 384-well black walled, clear bottom plate (Greiner Cat No 5678-1091Q) in 60 μl of complete DMEM (DMEM (Corning Cat No 10-013-CV), 10% FBS (VWR Cat No 97068-085, 0.5% Penicilin/streptomycin (Gibco Cat No 15140-122)) containing 0.1 μg/ml Hoechst Dye (Thermo Scientific Cat No H3570). Transfection complexes are prepared by diluting 0.15 μg of 416-AD11A lysate or HEK lysate in 5 μl of PBS per well to be transfected and 0.15 μl of Lipofectamine 2000 (LF2K) (ThermoFisher Cat No 11668500) in 5 μl of Opti-MEM per well to be transfected in separate tubes. The pre-diluted 416-AD11A or HEK lysates and LF2K are subsequently mixed and allowed to incubate for 90 minutes at RT. A 10 μl aliquot of the 416-AD11A or HEK transfection complexes is added to the appropriate wells of the 384-well plate containing the T24 cells using the Bravo liquid handling platform (Agilent). Wells A23-P24 of the 384-well plate are transfected with HEK lysate to act as a reference point for spontaneous aggregation of 0N4R^P301S and for transfection related toxicity. The dilution of test compounds is performed using the Bravo liquid handling platform (Agilent). The control is DMSO in the absence of any test compound. Briefly, 1 μl of each test compound (5 mM stock) in the 384-well test plate was transferred to a 384-well plate (Greiner Cat No 781280) containing 61.5 μl of complete DMEM to generate a working stock of compounds at 80 μM. […]

T1 sequence (P10636 1-383 isoform P10636-6 P243S): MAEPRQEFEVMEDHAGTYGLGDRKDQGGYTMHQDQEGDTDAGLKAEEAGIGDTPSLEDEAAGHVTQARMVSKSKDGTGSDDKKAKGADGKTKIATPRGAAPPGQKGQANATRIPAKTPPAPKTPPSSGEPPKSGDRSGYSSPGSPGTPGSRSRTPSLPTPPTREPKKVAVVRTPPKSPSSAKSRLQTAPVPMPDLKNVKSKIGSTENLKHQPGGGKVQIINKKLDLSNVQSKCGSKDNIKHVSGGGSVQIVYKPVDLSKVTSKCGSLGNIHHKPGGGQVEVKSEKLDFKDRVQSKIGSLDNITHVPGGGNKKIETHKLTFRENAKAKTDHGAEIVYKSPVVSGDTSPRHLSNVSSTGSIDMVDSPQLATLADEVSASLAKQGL

Row | SMILES | AD Tau Aggregates (% control)
1 | Cc1cc(-c2nc(-n3cc4ccn(C5CC5)c4nc3=O)c(-c3ccc(F)c(F)c3)o2)ncc1F [Compound 234] | 85 % control
2 | Cc1ccnn1-c1nc(-n2cc3ccn(C(F)(F)F)c3nc2=O)c(-c2ccc(F)cc2)o1 [Compound 240] | 95 % control
3 | Cc1ccn(-c2nc(-n3cc4ccn(C(F)(F)F)c4nc3=O)c(-c3ccc(F)cc3)o2)n1 [Compound 241] | 98 % control
4 | O=c1nc2c(ccn2C(F)(F)F)cn1-c1nc(N2Cc3ccccc3C2)oc1-c1ccc(F)cc1 [Compound 242] | 99 % control
5 | CNC(=O)c1ncc2c(-c3ccccc3Cl)nn(-c3ccc(F)cc3)c2n1 [Compound 244] | 100 % control
6 | CCc1ccccc1-c1nn(-c2ccc(F)cc2)c2nc(C(=O)NC)ncc12 [Compound 245] | 120 % control
7 | CNC(=O)c1ncc2c(-c3ccccc3)nn(-c3ccc(F)cc3)c2n1 [Compound 246] | 120 % control
8 | CNC(=O)c1ncc2c(-c3ccccc3)nn(Cc3ccccc3)c2n1 [Compound 248] | 95 % control
9 | CNC(=O)c1ncc2c(-c3cc4c(cnn4C)cc3F)nn(Cc3ccccc3)c2n1 [Compound 253] | 96 % control
10 | CNC(=O)c1ncc2c(-c3cccc4c3OC(F)(F)O4)nn(Cc3ccccc3)c2n1 [Compound 254] | 100 % control
11 | CNC(=O)c1ncc2c(-c3ccc(F)cc3)nn(CC3CCCCC3)c2n1 [Compound 258] | 110 % control
12 | CNC(=O)c1ncc2c(-c3ccc(F)cc3)nn(Cc3ccnc(F)c3)c2n1 [Compound 259] | 99 % control
13 | CNC(=O)c1ncc2c(-c3ccc(F)cc3)nn(Cc3cccc(F)c3)c2n1 [Compound 260] | 95 % control
14 | CNC(=O)c1ncc2c(-c3ccc(F)cc3)nn(Cc3ccc(F)cc3)c2n1 [Compound 261] | 87 % control
15 | CC(=O)Nc1ncc2c(-c3ccccc3)nn(C(C)c3ccccc3)c2n1 (stereo not drawn) [Compound 265] | 110 % control
16 | CC(=O)Nc1ncc2c(-c3ccccc3C)nn(Cc3ccccc3)c2n1 [Compound 266] | 98 % control
17 | CC(=O)Nc1ncc2c(-c3ccccc3)nn(Cc3cncc(F)c3)c2n1 [Compound 267] | 91 % control
18 | CCC(=O)Nc1ncc2c(-c3ccccc3)nn(Cc3ccc(OC)cc3)c2n1 [Compound 269] | 100 % control
19 | COC(=O)Nc1ncc2c(-c3ccccc3)nn(-c3ccccc3)c2n1 [Compound 274] | 94 % control
20 | CC(=O)Nc1ncc2c(-c3ccccc3)nn(Cc3ccncc3)c2n1 [Compound 279] | 92 % control
21 | CC(=O)Nc1ncc2c(-c3ccccc3)nn(CC3CCCCC3)c2n1 [Compound 280] | 90 % control

system: not listed separately; test: Parallel Artificial Membrane Permeability Assay (PAMPA); format: in vitro ADME; settings: 200 uM test compound, 4 hr
Method: Parallel Artificial Membrane Permeability Assay (PAMPA). 5 uL of 1% lecithin (VWR 0579) dissolved in n-dodecane (Sigma Aldrich D221104) was applied to each well of a MultiScreen IP PAMPA filter plate (Millipore MAIPSWU10) and allowed to equilibrate for 5 minutes. 300 uL of PBS was added to the acceptor plate and 150 uL of 200 uM test compound dissolved in PBS and 30% ethanol was added to the donor wells before incubating the donor plate in the acceptor plate for 4 hr at 500 rpm. 100 uL was sampled from the donor and acceptor wells and the concentrations were measured by liquid chromatography-mass spectrometry (SCIEX 4500) or UV-VIS plate reader (BMG).

Row | SMILES | PAMPA: P_app pH 7.4
22 | CNc1nc(=O)n(-c2nc(-c3cccc(Cl)c3)oc2-c2ccc(Cl)c(F)c2)cc1F [Compound 1] | >50.0 ×10e−6 cm/sec
23 | CCc1ccccc1-c1nn(-c2ccc(F)cc2)c2nc(C(=O)NC)ncc12 [Compound 245] | >50 ×10e−6 cm/sec
24 | CNC(=O)c1ncc2c(-c3ccccc3)nn(-c3ccc(F)cc3)c2n1 [Compound 246] | >50 ×10e−6 cm/sec
25 | CNC(=O)c1ncc2c(-c3ccc(F)cc3)nn(Cc3ccccc3)c2n1 [Compound 250] | >50 ×10e−6 cm/sec
26 | CNC(=O)c1ncc2c(-c3cc(F)cc(F)c3)nn(Cc3ccccc3)c2n1 [Compound 252] | >50 ×10e−6 cm/sec
27 | CC(=O)Nc1ncc2c(-c3ccccc3C)nn(Cc3ccccc3)c2n1 [Compound 266] | >50 ×10e−6 cm/sec
28 | CCn1nc(-c2ccccc2)c2cnc(NC(C)=O)nc21 [Compound 277] | >50 ×10e−6 cm/sec
29 | CC(=O)Nc1ncc2c(-c3ccccc3)nn(Cc3ccccn3)c2n1 [Compound 278] | >50 ×10e−6 cm/sec
30 | CC(=O)Nc1ncc2c(-c3ccccc3)nn(CC3CCCCC3)c2n1 [Compound 280] | 19.5 ×10e−6 cm/sec
